Values joined by “and” are separate entries in the source; they are usually repeats but may differ in a detail not shown here. Equal values may be shown once.
Legend:
[1] = test system: Hbb^th3/+ mouse model of β-thalassemia intermedia; assay: Combination study: serum iron (MULTIGENT Iron assay), transferrin ELISA and calculated TSAT; type: in vivo; conditions: th3/+ mice, all animals, mean
Procedure: […] Anesthetized animals were subsequently euthanized by cervical dislocation.
Serum levels of iron were determined in triplicates using MULTIGENT Iron assay (Abbott Diagnostics, Cat. 6K95). Serum Transferrin (TO was measured in duplicates using a mouse-specific ELISA according to the manufacturer's instructions (Abcam, Cat. ab157724). Transferrin saturation (TSAT) was calculated using the formula: […]

[2] = test system: Hbb^th3/+ mouse model of β-thalassemia intermedia; conditions: in vivo
Procedure: (§3) The aim of this study was to test whether the concurrent use of the iron chelator DFX administered once daily (QD) alone at 30 mg/kg or in combination with Fpn127 administered QD at 120 mg/kg for 3 weeks is causing any therapeutic interactions in a mouse model of β-thalassemia intermedia (Hbb^th3/+; B6; 129P—b1tm1Unc-b2tm1Unc/J, Jackson Laboratories, Stock Number: 002683).
(§4) Animals were euthanized 1 h after the last dose of DFX on study day 23 (dosing day 17).
(§5) On the final study day (day 23), spleen, liver, and kidneys were collected and snap frozen in liquid nitrogen for further analysis, as outlined below. Wet weight of spleen, liver, and kidneys were recorded.
(§6) Content of total Fe was determined in pieces of spleens, livers, and kidneys by ICP-OES in the Analytical Development group of Vifor (International) Ltd., St. Gallen.
(§7) Individual wet weights of organs were recorded. Individual values of total Fe were measured in livers, spleens, and kidneys. Individual values of total Fe content and concentration were calculated. Mean±SD of total Fe concentration and content in livers, spleens, and kidneys was calculated for each group.

[3] = test system: Hbb^th3/+ mouse model of β-thalassemia intermedia; assay: Combination study: organ weights and tissue iron (ICP-OES) in liver, spleen, kidney; conditions: for relative spleen weight: percent of body weight; for relative spleen weight / kidney Fe conc. / liver Fe conc. / spleen Fe conc.: th3/+ mice, DFX 30 mg/kg QD, Fpn127 120 mg/kg QD p.o., end of study (day 23), mean
Procedure: as §3, §4, §5, §6, §7

[4] = test system: Hbb^th3/+ mouse model of β-thalassemia intermedia; assay: Combination study: complete blood counts (ProCyte Dx); type: in vivo
Procedure: Complete blood counts were performed on fresh EDTA-blood on an automated blood cell analyzer (ProCyte Dx®, IDEXX Laboratories) in-house.

[5] = Combination study: plasma concentrations of Fpn127 and DFX (LC-MS/MS); type: in vivo, mouse
Procedure: (§1) On day 23 (study end) 1 hour after dosing blood was collected by retro-orbital bleeding from pre-terminally anesthetized mice into BD Microtainer Tubes (Cat. 365967 and 365975) for determination of serum iron, transferrin, erythropoietin and compound exposure. Anesthetized animals were subsequently euthanized by cervical dislocation.
(§2) [formula] Serum EPO was measured using a mouse-specific DuoSet ELISA according to the manufacturer's instructions (R&D Systems, Cat. DY959). Plasma concentrations of Fpn127 and DFX were measured at GVK Biosciences, Hyderabad, IN. Flow Cytometric Analysis of Intracellular ROS, Mitochondria, and PS Exposure
Plasma was collected 1 hour after dosing of DFX on day 23 for determination of compound concentration by LC-MS/MS. Plasma exposure of DFX was similar in animals dosed with DFX alone or in combination with Fpn127 (FIG. 11, Table 12). […] As expected, plasma levels of Fpn127 were low as plasma was sampled approximately 20 h after the last dose of Fpn127.

[6] = test system: Hbb^th3/+ mouse model of β-thalassemia intermedia; assay: Combination study: serum EPO (DuoSet ELISA); type: in vivo; conditions: serum; th3/+ mice; day 23; DFX 30 mg/kg QD, Fpn127 120 mg/kg QD p.o.; all animals; mean
Procedure: as §1, §2

[7] = test system: Hbb^th3/+ mouse model of β-thalassemia intermedia; assay: Combination study: flow cytometric analysis of intracellular ROS, mitochondria and PS exposure in mature RBC; type: in vivo; conditions: th3/+ mice, all animals; mature RBCs in whole blood at end of study (pre-terminally d22)
Procedure: In peripheral blood taken on day 22 by tail vein incision, ROS were detected with the indicator chloromethyl-2′,7′-dichlorodihydrofluorescein diacetate (CM-H2DCFDA, Invitrogen), the presence of mitochondria was detected with MitoTracker Deep Red FM (Invitrogen), and PS exposure was detected using the Annexin V Apoptosis Detection Kit (Invitrogen) in mature RBC labelled with Ter119 and CD71 antibodies.
For all analysis, cells were analyzed on a CANTOII cytometer (BD Biosciences) and data were analyzed using FlowJo® software (FlowJo, LLC, version 10.2).

[8] = test system: Hbb^th3/+ mouse model of β-thalassemia intermedia; assay: Combination study: hemoglobin (HemoCue photometer); type: in vivo; conditions: th3/+ mice, DFX 30 mg/kg QD, Fpn127 120 mg/kg QD p.o., mean
Procedure: One day after switching to lid a blood sample was taken by tail vein incision to determine the baseline Hb levels. Hb was measured using a HaemoCue® device. Hb was also measured on days 8, 15, and 22 in the morning before dosing. The animals were dosed p.o. D with 30 mg/kg DFX in 30% Kolliphor, 120 mg/kg Fpn127 in 0.5% C, or both for a total of 17 doses during the 23 days of study. 30% Kolliphor and 0.5% C were dosed as vehicles. The dose of DFX was administered at the beginning of the dark cycle (active phase) at 9:00 followed by 3 h of access to lid. Then, mice were dosed with Fpn127 (or 0.5% C) and were given access to sd for a 6 h period before switched back to lid. On the dosing was paused and mi had access to lid ad libitum.
Hb was measured on days 1, 8, 15 and 22. Individual Hb values were determined at the starting day of the experiment (day 1) and weekly thereafter during the experimental phase in the morning before the first daily dose. A blood sample was taken by tail vein incision and Hb was measured using a HemoCue® DM201 Hb photometer.

[9] = th3/+ mice, DFX 30 mg/kg QD, Fpn127 120 mg/kg QD p.o., whole blood day 23, all animals, mean

SMILES: O=C(O)c1ccc(-n2nc(-c3ccccc3O)nc2-c2ccccc2O)cc1 [DFX, deferasirox, reference compound]
- TSAT ([1]; calculated from Tf and serum iron, day 23, 1 h after last DFX dose, approx. 20 h after last Fpn127 dose): 27.5%
- serum iron ([1]; day 23, 1 h after last DFX dose (30 mg/kg), approx. 20 h after last Fpn127 dose (120 mg/kg)): 30.8 ± 5.9 µM and 30.8 µM
- effect on kidney weight vs vehicle-treated Hbbth3/+ mice [2]: no effect on kidney weight
- effect on liver weight vs vehicle-treated Hbbth3/+ mice [2]: no effect on liver weight
- effect on relative spleen weight in th3/+ animals ([3]; end of study d23 (FIG. 4)): no effect
- relative spleen weight ([3]; all animals): 1.98±0.26% and 1.98%
- relative spleen weight ([3]; females): 2.17%
- relative spleen weight ([3]; males): 1.79%
- kidney Fe conc. ([3]; all animals): 125.1 ± 22.2 µg/g and 125.1 µg/g
- liver Fe conc. ([3]; all animals): 196.3 ± 62.5 µg/g and 196.3 µg/g
- spleen Fe conc. ([3]; all animals): 1553.0 ± 144.7 µg/g and 1553.0 µg/g
- kidney Fe conc. ([3]; females): 126.6 µg/g
- liver Fe conc. ([3]; females): 241.2 µg/g
- spleen Fe conc. ([3]; females): 1511.0 µg/g
- kidney Fe conc. ([3]; males): 123.6 µg/g
- liver Fe conc. ([3]; males): 151.5 µg/g
- spleen Fe conc. ([3]; males): 1602.0 µg/g
- neutrophil counts ([4]; Hbb^th3/+ mice, day 23, potential inflammatory response): significantly increased
- HCT [4, 9]: 27.4%
- Leukocytes [4, 9]: 8.9 10E3/μL
- Lymphocytes [4, 9]: 7.4 10E3/μL
- MCH [4, 9]: 10.4 pg
- MCHC [4, 9]: 25.4 g/dL
- MCV [4, 9]: 41.1 fL
- Neutrophils [4, 9]: 1.2 10E3/μL
- RBC [4, 9]: 7.7 10E6/μL
- RDW [4, 9]: 47.0%
- RET [4, 9]: 1760 10E3/μL
- Ret-He [4, 9]: 12.8 pg
- plasma exposure of DFX, alone vs in combination with Fpn127 ([5]; 1 hour after dosing of DFX on day 23 (FIG. 11)): similar
- concentration at 1 h ([5]; both sexes, Hbb^th3/+ (B6; 129P—b1tm1Unc-b2tm1Unc/J), mouse, oral, 30 mg/kg, th3/+ mice, all animals, plasma collected 1 hour after dosing of DFX on day 23, LC-MS/MS, read-out: Plasma exposure of DFX at the end of the study (mean)): 15400 ng/mL
- EPO [6]: 5277 ± 1710 pg/mL and 5277 pg/mL
- % Annex in V-positive RBCs (mean) [7]: 0.47%
- % Mito Tracker-positive RBCs (mean) [7]: 0.56%
- % ROS-positive RBCs (mean) [7]: 41.56%
- Hb concentration ([8]; day 1 (before dosing), all animals): 84 g/L
- Hb concentration ([8]; day 1 (before dosing), females): 86 ± 2 g/L and 86 g/L
- Hb concentration ([8]; day 1 (before dosing), males): 82 ± 3 g/L and 82 g/L
- Hb concentration ([8]; day 8, all animals): 98 g/L
- Hb concentration ([8]; day 8, females): 99 g/L
- Hb concentration ([8]; day 8, males): 96 g/L
- Hb concentration ([8]; day 15, all animals): 81 g/L
- Hb concentration ([8]; day 15, females): 82 g/L
- Hb concentration ([8]; day 15, males): 80 g/L
- Hb concentration ([8]; day 22, all animals): 86 g/L
- Hb concentration ([8]; day 22, females): 85 g/L
- Hb concentration ([8]; day 22, males): 88 g/L

Reference: patent US12533348B2, “Ferroportin-inhibitors for the use in the treatment of transfusion-dependent beta-thalassemia (TDT)” (Vifor (International) AG, priority 2019, dated 2026)
